Patent publication US20250326771A1, “PIPERAZINE DERIVATIVES USEFUL IN HIV THERAPY” (VIIV HEALTHCARE COMPANY, priority 2022, published 2025)
Read-outs that look alike come from different tables or passages of the source.

How the values were obtained:
cIAP2-BIR2 = cIAP2-BIR2 (Homo sapiens (Human), UniProt Q13489); experiment: BIR binding assay (FRET competition), cIAP2 BIR2
How it was run: (§1)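 His-tagged domains (50 nM cIAP1-BIR3, 325 nM cIAP2-BIR2, 325 nM cIAP1-BIR2, 100 nM XIAP-BIR3) compete with compounds for a 200 nM AlexaFluor647-labelled SMAC/DIABLO peptide in HEPES buffer, pH 7.4, for 60 min. Then 2 nM Eu-W1024 is added for 30 min. The 615/665 nm ratio is fit by four-parameter fit to give IC50.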

[1] = tested on: Jurkat HIV-luciferase clones; experiment: Jurkat latency reversal assay; type: cell-based; conditions: Homo sapiens, 48 h; Jurkat latency reversal assay potency; read-out: Jurkat pEC50 (converted)
How it was run: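 Compounds are titrated 3-fold over 14 points from 10 μM in duplicate at 0.5% DMSO. Clones C16, 115 and N6, grown with 500 nM EFV, are co-incubated for 48 h at 37° C. Virally driven luciferase is read by luminescence, and EC50 and maximal percent activation versus vehicle come from a four-parameter model.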

cIAP1-BIR3 = cIAP1-BIR3 (Homo sapiens (Human), UniProt Q13490); experiment: BIR binding assay (FRET competition), cIAP1 BIR3; conditions: for cIAP1 BIR3 vs BIR2 separation window: fold separation (FS) for cIAP1
Sequence of cIAP1-BIR3 (Q13490 253-363): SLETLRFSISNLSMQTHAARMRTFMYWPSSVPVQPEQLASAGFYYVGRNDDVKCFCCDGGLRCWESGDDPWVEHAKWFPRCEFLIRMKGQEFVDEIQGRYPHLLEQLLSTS
How it was run: as §1

cIAP2-BIR3 = cIAP2-BIR3 (Homo sapiens (Human), UniProt Q13489); experiment: BIR binding assay (FRET competition), cIAP2 BIR3; conditions: for cIAP2 BIR3 vs BIR2 separation window: fold separation (FS) for cIAP2
Sequence of cIAP2-BIR3 (Q13489 238-349): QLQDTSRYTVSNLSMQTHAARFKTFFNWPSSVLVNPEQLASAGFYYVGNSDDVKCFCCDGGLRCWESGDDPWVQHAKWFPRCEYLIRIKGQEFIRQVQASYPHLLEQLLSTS

XIAP-BIR2 = XIAP-BIR2 (Homo sapiens (Human), UniProt P98170); experiment: BIR binding assay (FRET competition), XIAP BIR2
Sequence of XIAP-BIR2 (P98170 124-240): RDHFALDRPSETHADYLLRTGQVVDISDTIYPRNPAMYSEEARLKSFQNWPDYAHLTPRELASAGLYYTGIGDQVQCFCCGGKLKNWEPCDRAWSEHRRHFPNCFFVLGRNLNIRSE
Protocol: The BIR domain binding assays are FRET based competition assays that utilize His-tagged versions of each of the BIR2 and BIR3 domains from cIAP1, cIAP2, and XIAP (each domain assayed separately) each at a custom optimal concentration and a probe, 200 nM SMAC/DIABLO peptide AVPIAQKSE labelled with AlexaFluor647 (part #crb 1110326h, Discovery Peptides). The assay is conducted in 50 mM HEPES, […], 1 mM CHAPS, 5% Glycerol, 1 mM DTT, in dI water with a final pH of 7.4 and final volume of 20 uL. Final protein domain concentrations are: 50 nM cIAP1-BIR3 (Part #APT-11-370 Reaction Biology), 100 nM XIAP-BIR3 (Part #APT-11-351 Reaction Biology), 200 nM XIAP-BIR2 (Part #APT-11-470 Reaction Biology), 325 nM cIAP2-BIR2 (Part #APT-11-489 Reaction Biology), 50 nM cIAP2-BIR3 (Part #APT-11-372 Reaction Biology), 325 nM cIAP1-BIR2 (Part #APT-11-487 Reaction Biology). Compounds were plated using a HP Tecan D300 printer in a final total volume of 202 nl and DMSO concentration normalized across the 15-point, 3-fold dilution series. Peptide and probe were prepared at 2× relative to the concentrations above in binding buffer, 10 uL added to the prepared compound plates, and incubated for 60 minutes. LANCE Eu-W1024 (part #AD0401 Perkin Elmer #, vendor) was prepared at 2× concentration in binding buffer for final concentration of 2 nM, 10 uL added to each well, and plates incubated for 30 minutes. Plates were read on an ENVISION multifunction plate reader with […] laser excitation to obtain the 615 nm/665 nm emission ratio as indicative of probe:protein proximity. Data was analyzed using GraphPad PRISM and curves fit using log(inhibitor) vs. response—Variable slope (four […] method to obtain IC50 and pIC50 values.

cIAP1-BIR2 = cIAP1-BIR2 (Homo sapiens (Human), UniProt Q13490); experiment: BIR binding assay (FRET competition), cIAP1 BIR2
Sequence of cIAP1-BIR2 (Q13490 173-257): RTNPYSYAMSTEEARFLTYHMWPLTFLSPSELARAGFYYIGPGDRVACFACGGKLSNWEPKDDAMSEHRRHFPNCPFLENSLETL
How it was run: as §1

XIAP-BIR3 = XIAP-BIR3 (Homo sapiens (Human), UniProt P98170); experiment: BIR binding assay (FRET competition), XIAP BIR3; conditions: for XIAP BIR3 vs BIR2 separation window: fold separation (FS) for XIAP
Sequence of XIAP-BIR3 (P98170 241-356): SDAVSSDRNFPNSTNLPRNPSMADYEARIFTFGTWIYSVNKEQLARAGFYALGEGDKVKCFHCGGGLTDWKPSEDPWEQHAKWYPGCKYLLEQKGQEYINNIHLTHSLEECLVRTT
How it was run: as §1

[2] = FRET competition, read-out: XIAP BIR2 (pIC50) (converted)
[3] = FRET competition binding, read-out: XIAP BIR2 (pIC50) (converted)

Sequence of cIAP2-BIR2 (Q13489 158-242): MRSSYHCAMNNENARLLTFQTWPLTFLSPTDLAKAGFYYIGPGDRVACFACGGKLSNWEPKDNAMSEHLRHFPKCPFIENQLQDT

| Compound | IC50 (cIAP2-BIR2) | EC50 [1] | IC50 (cIAP1-BIR3) | cIAP1 BIR3 vs BIR2 separation window (cIAP1-BIR3) | IC50 (cIAP2-BIR3) | cIAP2 BIR3 vs BIR2 separation window (cIAP2-BIR3) | IC50 (XIAP-BIR2; [2]) | IC50 (cIAP1-BIR2) | IC50 (XIAP-BIR3) | XIAP BIR3 vs BIR2 separation window (XIAP-BIR3) | IC50 (XIAP-BIR2; [3]) | IC50 (XIAP-BIR2) |
| --- | --- | --- | --- | --- | --- | --- | --- | --- | --- | --- | --- | --- |
| C[C@@H]1CN(CC(=O)N2CC(C)(C)c3[nH]c(=O)c(Cc4ccc(Cl)cc4C(=O)N(C)C)cc32)[C@@H](CN2CCO[C@H](C(=O)NCc3ccc(CNC(=O)[C@@H]4CN(C[C@H]5CN[C@H](C)CN5CC(=O)N5CC(C)(C)c6[nH]c(=O)c(Cc7ccc(Cl)cc7C(=O)N(C)C)cc65)CCO4)cc3)C2)CN1 [Compound 172, (2S,2′S)-N,N′-(1,4-phenylenebis(methylene)) bis(4-(((2R,5R)-1-(2-(6-(4-chloro-2-(dimethylcarbamoyl)benzyl)-3,3-dimethyl-5-oxo-2,3,4,5-tetrahydro-1H-pyrrolo[3,2-b]pyridin-1-yl)-2-oxoethyl)-5-methylpiperazin-2-yl)methyl)morpholine-2-carboxamide)] | 10000 to 51300 nM | 316 to 3310 nM | 7.94 to 15.8 nM | +++ (10,000>FS>1,000) | 7.94 to 15.8 nM | ++++ (FS>10,000) | 10000 to 51300 nM | 10000 to 51300 nM | 31.6 to 501 nM | ++++ (FS>10,000) | – | – |
| C[C@@H]1CN(CC(=O)N2CC(C)(C)c3[nH]c(=O)c(Cc4ccc(F)cc4F)cc32)[C@@H](CN2CCO[C@H](COc3cccc(OC[C@@H]4CN(C[C@H]5CN[C@H](C)CN5CC(=O)N5CC(C)(C)c6[nH]c(=O)c(Cc7ccc(F)cc7F)cc65)CCO4)c3)C2)CN1 [Compound 190] | 3160 to 10000 nM | 0.49 to 12.6 nM | 15.8 to 31.6 nM | +++ (10,000>FS>1,000) | 15.8 to 31.6 nM | +++ (10,000>FS>1,000) | 10000 to 51300 nM | 3160 to 10000 nM | 15.8 to 31.6 nM | ++++ (FS>10,000) | – | – |
| Cc1c(OC[C@@H]2CN(C[C@H]3CN[C@H](C)CN3CC(=O)N3CC(C)(C)c4[nH]c(=O)c(Cc5ccc(F)cc5)cc43)CCO2)cccc1OC[C@@H]1CN(C[C@H]2CN[C@H](C)CN2CC(=O)N2CC(C)(C)c3[nH]c(=O)c(Cc4ccc(F)cc4)cc32)CCO1 [Example 79, 1,1′-(2,2′-((3R,3′R,6R,6′R)-(((2S,2'S)-(((2-methyl-1,3-phenylene)bis(oxy))bis(methylene))bis(morpholine-2,4-diyl))bis(methylene))bis(3-methylpiperazine-6,1-diyl))bis(acetyl))bis(6-(4-fluorobenzyl)-3,3-dimethyl-1,2,3,4-tetrahydro-5H-pyrrolo[3,2-b]pyridin-5-one)] | 3160 to 10000 nM | 0.49 to 12.6 nM | 1.38 to 7.94 nM | +++ (10,000>FS>1,000) | 1.38 to 7.94 nM | +++ (10,000>FS>1,000) | – | 1000 to 3160 nM | 7.94 to 15.8 nM | ++++ (FS>10,000) | 10000 to 51300 nM | – |
| C[C@@H]1CN(CC(=O)N2CC(C)(C)c3ncc(Cc4ccccc4)cc32)[C@@H](CN2CCO[C@H](COc3cccc(OC[C@@H]4CN(C[C@H]5CN[C@H](C)CN5CC(=O)N5CC(C)(C)c6ncc(Cc7ccccc7)cc65)CCO4)c3)C2)CN1 [Compound 150] | 10000 to 51300 nM | 12.6 to 63.1 nM | 7.94 to 15.8 nM | +++ (10,000>FS>1,000) | 7.94 to 15.8 nM | ++++ (FS>10,000) | – | 3160 to 10000 nM | 15.8 to 31.6 nM | ++++ (FS>10,000) | – | 10000 to 51300 nM |
| C[C@@H]1CN(CC(=O)N2CC(C)(C)c3[nH]c(=O)c(Cc4ccc(F)cc4)cc32)[C@@H](CN2CCO[C@H](C(=O)NCCCN3CCN(CCCNC(=O)[C@@H]4CN(C[C@H]5CN[C@H](C)CN5CC(=O)N5CC(C)(C)c6[nH]c(=O)c(Cc7ccc(F)cc7)cc65)CCO4)CC3)C2)CN1 [Example 123, (2S,2'S)-N,N′-(piperazine-1,4-diylbis(propane-3,1-diyl))bis(4-(((2R,5R)-1-(2-(6-(4-fluorobenzyl)-3,3-dimethyl-5-oxo-2,3,4,5-tetrahydro-1H-pyrrolo[3,2-b]pyridin-1-yl)-2-oxoethyl)-5-methylpiperazin-2-yl)methyl)morpholine-2-carboxamide)] | 3160 to 10000 nM | 316 to 3310 nM | 7.94 to 15.8 nM | +++ (10,000>FS>1,000) | 7.94 to 15.8 nM | +++ (10,000>FS>1,000) | – | 3160 to 10000 nM | 7.94 to 15.8 nM | ++++ (FS>10,000) | 10000 to 51300 nM | – |
| C[C@@H]1CN(CC(=O)N2CC(C)(C)c3[nH]c(=O)c(Cc4ccc(C(F)F)cc4)cc32)[C@@H](CN2CCO[C@H](C(=O)NCc3ccc(CNC(=O)[C@@H]4CN(C[C@H]5CN[C@H](C)CN5CC(=O)N5CC(C)(C)c6[nH]c(=O)c(Cc7ccc(C(F)F)cc7)cc65)CCO4)cc3)C2)CN1 [Compound 166, (2S,2′S)-N,N′-(1,4-phenylenebis(methylene)) bis(4-(((2R,5R)-1-(2-(6-(4-(difluoromethyl)benzyl)-3,3-dimethyl-5-oxo-2,3,4,5-tetrahydro-1H-pyrrolo[3,2-b]pyridin-1-yl)-2-oxoethyl)-5-methylpiperazin-2-yl)methyl)morpholine-2-carboxamide)] | 22.4 to 1000 nM | 316 to 3310 nM | 7.94 to 15.8 nM | ++ (1,000>FS>100) | 1.38 to 7.94 nM | +++ (10,000>FS>1,000) | 10000 to 51300 nM | 22.4 to 1000 nM | 15.8 to 31.6 nM | ++++ (FS>10,000) | – | – |
| C[C@@H]1CN(CC(=O)N2CC(C)(C)c3[nH]c(=O)c(Cc4ccc(F)cc4)cc32)[C@@H](CN2CCO[C@H](C(=O)NCCCCCNC(=O)[C@@H]3CN(C[C@H]4CN[C@H](C)CN4CC(=O)N4CC(C)(C)c5[nH]c(=O)c(Cc6ccc(F)cc6)cc54)CCO3)C2)CN1 [Compound 136, (2S,2′S)-N,N′-(pentane-1,5-diyl)bis(4-(((2R,5R)-1-(2-(6-(4-fluorobenzyl)-3,3-dimethyl-5-oxo-2,3,4,5-tetrahydro-1H-pyrrolo[3,2-b]pyridin-1-yl)-2-oxoethyl)-5-methylpiperazin-2-yl)methyl)morpholine-2-carboxamide)] | 1000 to 3160 nM | 63.1 to 316 nM | 7.94 to 15.8 nM | +++ (10,000>FS>1,000) | 7.94 to 15.8 nM | +++ (10,000>FS>1,000) | 10000 to 51300 nM | 1000 to 3160 nM | 15.8 to 31.6 nM | ++++ (FS>10,000) | – | – |
| C[C@@H]1CN(CC(=O)N2CC(C)(C)c3[nH]c(=O)c(Cc4ccc(F)cc4)cc32)[C@@H](CN2CCO[C@H](COc3ccc(OC[C@@H]4CN(C[C@H]5CN[C@H](C)CN5CC(=O)N5CC(C)(C)c6[nH]c(=O)c(Cc7ccc(F)cc7)cc65)CCO4)cc3)C2)CN1 [Example 70, 1,1′-(2,2′-((3R,3′R,6R,6′R)-(((2S,2'S)-((1,4-phenylenebis(oxy))bis(methylene))bis(morpholine-2,4-diyl))bis(methylene))bis(3-methylpiperazine-6,1-diyl))bis(acetyl))bis(6-(4-fluorobenzyl)-3,3-dimethyl-1,2,3,4-tetrahydro-5H-pyrrolo[3,2-b]pyridin-5-one)] | 1000 to 3160 nM | 0.49 to 12.6 nM | 15.8 to 31.6 nM | +++ (10,000>FS>1,000) | 7.94 to 15.8 nM | +++ (10,000>FS>1,000) | – | 1000 to 3160 nM | 15.8 to 31.6 nM | ++++ (FS>10,000) | 10000 to 51300 nM | – |
